Test results: ChEMBL document CHEMBL1136400, “Substituted bridged phenyl piperidines: orally active growth hormone secretagogues” (Bioorg Med Chem Lett, 2003)

Species on record: Rattus norvegicus
Test: Effective concentration for their ability to release growth hormone in the rat pituitary cell assay
Assay type: functional, organism-based, Pituitary gland cell
Conditions: Rattus norvegicus, Pituitary gland cell
Work on `CC(C)(N)C(=O)N[C@H](Cc1c[nH]c2ccccc12)C(=O)N1C2CCC1CC(c1ccccc1)C2` (mixture of isomers) yielded an EC50 of 62.8 nM. `CCNC(=O)c1ccccc1C1CC2CCC(C1)N2C(=O)[C@@H](CCCc1ccccc1)NC(=O)C(C)(C)N` (mixture of isomers) was tested, and the EC50 was 1.3 nM. `Cc1ccccc1C1CC2CCC(C1)N2C(=O)[C@@H](CCCc1ccccc1)NC(=O)C(C)(C)N` (mixture of isomers) showed an EC50 of 78.4 nM. `CC(C)(N)C(=O)N[C@H](CCCc1ccccc1)C(=O)N1C2CCC1CC(c1ccccc1)C2` (mixture of isomers) gave an EC50 of 24 nM. Work on `Cc1ccccc1C1CC2CCC(C1)N2C(=O)[C@@H](Cc1c[nH]c2ccccc12)NC(=O)C(C)(C)N` (mixture of isomers) yielded an EC50 of 33.2 nM. `CC(C)(N)C(=O)N[C@H](COCc1ccccc1)C(=O)N1CCC2(CC1)CN(S(C)(=O)=O)c1ccccc12` [IBUTAMOREN] gave an EC50 of 1 nM.

Same assay, conditions: pituitary gland cell
`CCOC(=O)c1ccccc1C1CC2CCC(C1)N2C(=O)[C@@H](CCCc1ccccc1)NC(=O)C(C)(C)N` (mixture of isomers) gave an EC50 of 90 nM. `CCOC(=O)c1ccccc1C1CC2CCC(C1)N2C(=O)[C@@H](CCCc1ccccc1)NC(=O)C(C)(C)N` (stereo in doubt; 26f) showed an EC50 of 48 nM. In the case of `CC(C)(N)C(=O)N[C@H](CCCc1ccccc1)C(=O)N1C2CCC1CC(c1ccccc1C(=O)O)C2` (stereo in doubt; 26g), the EC50 is reported as 9.6 nM. `CCOC(=O)c1ccccc1C1CC2CCC(C1)N2C(=O)[C@@H](CCCc1ccccc1)NC(=O)C(C)(C)N` (stereo in doubt; 26h) was tested, and the EC50 was 324 nM. `CC(C)(N)C(=O)N[C@H](CCCc1ccccc1)C(=O)N1C2CCC1CC(c1ccccc1C(=O)O)C2` (stereo in doubt; 26i) showed an EC50 of over 500 nM.
